Laboratory results taken from patent US6541463B1, “Inhibitors of type 5 and type 3 17β-hydroxysteroid dehydrogenase and methods for their use” (Endorecherche, Inc., priority 1998, dated 2003).

What follows are compounds tested against T1, human type 2 17β-hydroxysteroid dehydrogenase (Homo sapiens, UniProt P37059) (assay: Enzymatic assay for type 2 17β-HSD). Conditions: Table 4′; bracketed values, 3 · 10^−8M.
T1 construct: expressed in transfected cells; host or cells: 293 cells, transient transfection; microsomal fraction (100 000×g pellet)
T1 sequence (P37059 1-387): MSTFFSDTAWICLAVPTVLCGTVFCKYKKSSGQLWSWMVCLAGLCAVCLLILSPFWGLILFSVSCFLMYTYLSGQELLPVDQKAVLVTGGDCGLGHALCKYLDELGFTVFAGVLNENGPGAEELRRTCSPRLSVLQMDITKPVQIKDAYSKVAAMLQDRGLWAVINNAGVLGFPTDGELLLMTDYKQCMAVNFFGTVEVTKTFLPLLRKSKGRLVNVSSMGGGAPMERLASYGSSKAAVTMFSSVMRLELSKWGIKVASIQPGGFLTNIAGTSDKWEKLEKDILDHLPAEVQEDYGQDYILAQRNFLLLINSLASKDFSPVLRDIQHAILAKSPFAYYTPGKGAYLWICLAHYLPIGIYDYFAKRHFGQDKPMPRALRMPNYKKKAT
Assay type: biochemical
Procedure: The manner in which IC50 was determined is described in “Efficacy of Preferred Inhibitors: VI. Enzymatic assay for types 1, 2, and 3 17β-HSD and types 1 and 3 3α-HSD”. […] numbers of IC50 are desirable. Blank means that a determination was not done. […]
Enzyme sources. 293 cells transiently transfected with expression vectors encoding types 1, 2 and 3 17β-HSD (Luu-The et al., J. Steroid Biochem. Molec. Biol., 55: 581-587, 1995), types 1 and 2 5α-reductase (Luu-The et al., J. Invest. Dermatol., 102: 221-226, 1994) and types 1 and 3 3α-HSD (Dufort et al. Biochem. Biophys. Res. Commun. 228: 474-479, 1996), using the calcium phosphate procedure (Kingston et al., In: Current Protocols in Molecular Biology. Edited by E. M. Ausbel, R. Brent, R. E. Kingston, D. D. Moore, J. G. Seidman, J. A. Smith, K. Struhl. John Wiley & Sons, New York, pp. 9.1.1-9.1.9, 1991; Luu-The et al., J. Invest. Dermatol., 102: 221-226, 1994). For assays using cell subfractions, cells were sonicated in 50 mM sodium phosphate buffer (pH 7.4), containing 20% glycerol and 1 mM EDTA and centrifuged at 10 000×g for 30 min before centrifugation for 100 000×g for 1 h to separate the mitochondrial and microsomal fractions, respectively. The cytosol fractions (100 000×g supernatant) was used to determine type 1 activity while the microsomal fraction (pellet at 100 000×g) was used for measurement of types 2 and 3 17β-HSD activities.
Incubation. The enzymatic reaction was carried out at 37° C. in 1 ml of 50 mM sodium phosphate buffer, pH 7.4, containing 20% glycerol, 1 mM EDTA, and 2 mM cofactors (NADPH or AND^+) for 1 h in the presence of 0.1 μM ^14C-labeled substrate: estrone and 4-dione for types 1 and […] 17β-HSD, respectively, testosterone for type 2 17β-HSD as well as types 1 and 2 5α-reductases, DHT for types 1 and 3 3α-HSD activities, and the indicated concentration of inhibitor.
Extraction of metabolites, migration on TLC and quantification were as described above for the assay of type 5 17β-HSD.
In the case of `CC1(C)CCC2(CCC3C4CCc5cc(C(=O)OCc6ccccc6)ccc5C4CCC32C)OC1=O` (stereo not shown) [EM-1398], the “Inhibition Type 2 17β-HSD Activity [% Inh. at 3 · 10^−8M]” value is reported as “[64] %”. With `COCCOc1cc2c(cc1C(F)(F)F)[C@H]1CC[C@@]3(C)[C@@H](CC[C@@]34CCC(C)(C)C(=O)O4)[C@@H]1CC2` [EM-1438, 3-(2′-Methoxyethoxy)-2-trifluoromethyl-1,3,5(10)-estratrien-17(R)-spiro-2′-(5′,5′-dimethyl-6′-oxo)tetrahydropyran] the “Inhibition Type 2 17β-HSD Activity [% Inh. at 3 · 10^−8M]” value was “[72] %”. In the case of `CC1CCC2(CCC3C4CCc5cc(O)c([N+](=O)[O-])cc5C4CCC32C)OC1=O` [EM-1126, 2-Nitro-1,3,5(10)-estratrien-3-ol-17(R)-spiro-2′-(5′-methyl-6′-oxo)tetrahydropyran], the “Inhibition Type 2 17β-HSD Activity [% Inh. at 3 · 10^−8M]” value is reported as “[59] %”. In the case of `CC1(C)CC[C@@]2(CC[C@H]3[C@@H]4CCc5c(cc(Br)c(O)c5Br)[C@H]4CC[C@@]32C)OC1=O` [EM-1382-CS], the “Inhibition Type 2 17β-HSD Activity [% Inh. at 3 · 10^−8M]” value is reported as “[70] %”.

Same assay, conditions: Table 4′; bracketed values, 3 · 10^−8M; read-out: Inhibition Type 2 17β-HSD Activity [% Inh. at 3 · 10^−8M]
In the case of `COCCOc1ccc2c(c1)C(=O)CC1C2CCC2(C)C1CCC21CCC(C)(C)C(=O)O1` (stereo not shown) [EM-1408-CS], the inhibition is reported as 66%. `CC1(C)CC[C@@]2(CCC3C4CCc5cc(C(=O)O)ccc5C4CC[C@@]32C)OC1=O` (stereo partly drawn) [EM-1401, 3-Carboxy-1,3,5(10)-estratrien-17(R)-spiro-2′-(5′,5′-dimethyl-6′-oxo)tetrahydropyran] showed an inhibition of 76%. Compound `CC1CCC2(CCC3C4CCc5ccccc5C4CCC32C)OC1=O` (stereo not shown) [EM-1025] has an inhibition of 64%. `CC12CCC3c4ccc(F)cc4CCC3C1CCC21CCCC(=O)O1` (stereo not shown) [EM-1170-CS] was tested, and the inhibition was 84%. For `COC(=O)C1CCC2(CCC3C4CCc5cc(O)ccc5C4CCC32C)OC1=O` [PB-132-146, 3-Hydroxy-1,3,5(10)-estratrien-17(R)-2′-(5′-methoxycarbonyl-6′-oxo)tetrahydropyran], the inhibition was 75%. With `CCOc1ccc2c(c1)CCC1C2CC[C@@]2(C)C1CC[C@@]21CCC(C)(C)C(=O)O1` (stereo partly drawn) [EM-1369, 3-Ethoxy-1,3,5(10)-estratrien-17(R)-spiro-2′-(5′,5′-dimethyl-6′-oxo)-tetrahydropyran] the inhibition was 62%. `COc1cc2c(cc1C(F)(F)F)C1CCC3(C)C(CCC34CCC(C)(C)C(=O)O4)C1CC2` [EM-1409, 3-Methoxy-2-trifluoromethyl-1,3,5(10)-estratrien-17(R)-spiro-2′-(5′,5′-dimethyl-6′-oxo)tetrahydropyran] gave an inhibition of 4%. For `CN(C)C(=O)c1cc2c(cc1O)CCC1C2CCC2(C)C1CCC21CCC(C)(C)C(=O)O1` (stereo not shown) [EM-01661-B], the inhibition was 55%. For `COC(=O)c1cc2c(cc1O)CCC1C2CCC2(C)C1CCC21CCC(C)(C)C(=O)O1` (stereo not shown) [EM-01662], the inhibition was 70%. Compound `C[C@]12CCC3c4ccc(O)cc4CCC3C1CC[C@@]21CCCC(=O)O1` (stereo partly drawn) [EM-919, 1,3,5(10)-estratrien-3-ol-17(R)-spiro-2′(6′-oxo)tetrahydropyran] has an inhibition of 86%. In the case of `CC1CCC2(CCC3C4CCc5cc(O)c([N+](=O)[O-])cc5C4CCC32C)OC1=O` [EM-1131, 2-Nitro-1,3,5(10)-estratrien-3-ol-17(R)-spiro-2′-(5′-methyl-6′-oxo)tetrahydropyran], the inhibition is reported as 70%. Compound `CCS(=O)(=O)Oc1ccc2c(c1)CCC1C2CCC2(C)C1CCC21CCC(C)(C)C(=O)O1` (stereo not shown) [EM-1364-CS] has an inhibition of 73%. `CC1CC(=O)OC2(CCC3C4CCc5cc(O)ccc5C4CCC32C)C1` [PB-132-142, 3-Hydroxy-1,3,5(10)-estratrien-17(R)-spiro-2′-(4′-methyl-6′-oxo)tetrahydropyran] showed an inhibition of 69%. `COc1ccc2c(c1)CCC1C2CCC2(C)C1CCC21CCC(C)(C)C(=O)O1` (stereo not shown) [EM-1370] was tested, and the inhibition was 33%. For `CC1(C)CC[C@@]2(CCC3C4CCc5cc6oncc6cc5C4CC[C@@]32C)OC1=O` (stereo partly drawn) [EM-1407-CS, 1,3,5(10)-estratrien-(2,3-oximino)-17(R)-spiro-2′-(5′,5′-dimethyl-6′-oxo)tetrahydropyran], the inhibition was 68%. For `CC1(C)CCC2(CCC3C4CCc5cc(O)c(C(N)=O)cc5C4CCC32C)OC1=O` (stereo not shown) [EM-01660], the inhibition was 59%. For `COCCOc1ccc2c(c1)CCC1C2CCC2(C)C1CCC21CCC(C)(C)C(=O)O1` [EM-1368-CS, 3-Methoxyethoxy-1,3,5(10)-estratrien-17(R)-spiro-2′-(5′,5′-dimethyl-6′-oxo)-tetrahydropyran], the inhibition was 73%. Work on `CC1(C)CCC2(CCC3C4CCc5cc(O)c(C#N)cc5C4CCC32C)OC1=O` (stereo not shown) [EM-01645] yielded an inhibition of 38%. Compound `C=CCC1CCC2(CCC3C4CCc5cc(O)ccc5C4CCC32C)OC1=O` [PB-132-152, 3-Hydroxy-1,3,5(10)-estratrien-17(R)-2′-(5′-allyl-6′-oxo)tetrahydropyran] has an inhibition of 50%.

Same assay, conditions: Table 4′; read-out: Inhibition Type 2 17β-HSD Activity IC50
For `COCCOc1cc2c(cc1C(=O)O)C1CCC3(C)C(CCC34CCC(C)(C)C(=O)O4)C1CC2` [EM-1405, 2-Carboxy-3-(2″-methoxyethyloxy)-1,3,5(10)-estratrien-17(R)-spiro-2′-(5′,5′-dimethyl-6′-oxo)tetrahydropyran], the IC50 was over 10 µM. Work on `COc1ccc2c(c1)C(=O)CC1C2CC[C@@]2(C)C1CC[C@@]21CCC(C)(C)C(=O)O1` (stereo partly shown) [EM-1394] yielded an IC50 of over 10 µM. In the case of `COCCOc1cc2c(cc1F)C1CCC3(C)C(CCC34CCC(C)(C)C(=O)O4)C1CC2` (stereo not shown) [EM-1393-CS], the IC50 is reported as over 10 µM. In the case of `CC1(C)CC[C@@]2(CCC3C4CCc5cc(C(N)=O)ccc5C4CCC32C)OC1=O` (stereo partly shown) [EM-1404], the IC50 is reported as over 10 µM.

Same assay, conditions: Table 5 column 5; bracketed values, 3.10^−5 M
`CN1C(=O)C=C[C@]2(C)C3CC[C@@]4(C)C(CC[C@@]45CCCC(=O)O5)C3CCC12` (stereo partly shown) [EM-1122-CS] was tested, and the “Inhibition Type 2 17β-HSD Activity [% Inh. at 3.10^−5 M]” value was “[90] %”.

Same assay, conditions: at 3.10^-8M
With `CC(=O)[C@@]1(OC(=O)CCCCF)CCC2C3C=C(C)C4=CC(=O)CC[C@]4(C)C3CC[C@@]21C` (stereo partly shown) [EM-1195-CS] the “Inhibition Type 2 17β-HSD Activity [% Inh.]” value was “[40] %”.

What follows are compounds tested against T2, human type 5 17β-hydroxysteroid dehydrogenase (Homo sapiens, UniProt P42330) (assay: Reversibility of human type 5 17β-HSD inhibitory activity (preincubation, wash)). Conditions: not given.
T2 construct: screen again a human placental λgt11 cDNA to get the full length cDNA clone; expressed in transfected cells; host or cells: human embryonal kidney 293 cells (pCMV / pCMV-neo vector)
T2 sequence (P42330 1-323): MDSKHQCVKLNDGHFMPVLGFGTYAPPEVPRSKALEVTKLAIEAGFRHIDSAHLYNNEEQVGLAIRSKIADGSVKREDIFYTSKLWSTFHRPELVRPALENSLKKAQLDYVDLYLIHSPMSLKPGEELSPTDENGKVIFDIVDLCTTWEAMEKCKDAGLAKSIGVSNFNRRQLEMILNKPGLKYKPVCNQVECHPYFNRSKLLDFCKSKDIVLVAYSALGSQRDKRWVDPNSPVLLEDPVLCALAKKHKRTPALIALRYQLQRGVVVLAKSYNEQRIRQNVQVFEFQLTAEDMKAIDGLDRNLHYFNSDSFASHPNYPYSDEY
Assay type: cell-based
Procedure: In column 3, the reversibility of the inhibition of type 5 17β-hydroxysteroid dehydrogenase activity expressed in percentage of control is reported. The manner in which the reversibility is determined is described in “Efficacy of Preferred Inhibitors: V. Reversibility of Human Type 5 17β-HSD Inhibitory Activity”. Lower number is desirable. Blank means that a determination was not done.
Determination of activity was performed as described (Luu-The et al., Mol. Endocrionol. 4: 268-275, 1990, Lachance et al., J. Biol. Chem. 265: 20469-20475, 1990; Luu-The et al., DNA & Cell Biol. 14: 511-518, 1995). Briefly, 0.1 μM of the indicated ^14C-labeled substrate (Dupont Inc. (Canada), namely, DHEA, 4-androstene-3,17-dione (Δ4), in absence or presence of increasing concentration of preferred inhibitor of the invention, was added to freshly changed culture medium in a 6-well culture plate. After incubation for 1 h, the steroids were extracted twice with 2 ml of ether. The organic phase were pooled and evaporated to dryness. The steroids were solubilized in 50 μl of dichloromethane, applied to Silica gel 60 thin layer chromatography (TLC) plate (Merck, Darmstad, Germany) then separated by migration in the toluene-acetone (4:1) solvent system. […] Transfection could be also performed with HeLa, SW-13, 293, COS-1 cells, the preferred cell line is 293 cells.
The reversibility assay was performed as described above for the standard type 5 17β-HSD enzymatic assay, except that before adding the ^14C-labeled substrate, the cells were preincubated with 0.3 μM of the indicated inhibitor for 1 h, (or the indicated time interval), followed by two washes with phosphate saline buffer (PBS).
For `CC(C)C[C@@H]1CC2C3C=CC4=CC(=O)CC[C@]4(C)C3CC[C@]2(C)C1=O` (stereo partly shown) [EM-1273-CS], the “Reversibility ((%) of control)” value was 40%.

Same assay, conditions: Table 4′
`COCCOc1cc2c(cc1C(=O)O)C1CCC3(C)C(CCC34CCC(C)(C)C(=O)O4)C1CC2` [EM-1405, 2-Carboxy-3-(2″-methoxyethyloxy)-1,3,5(10)-estratrien-17(R)-spiro-2′-(5′,5′-dimethyl-6′-oxo)tetrahydropyran] was tested, and the “Reversibility ((%) of control)” value was 53 % of control. For `COc1ccc2c(c1)C(=O)CC1C2CC[C@@]2(C)C1CC[C@@]21CCC(C)(C)C(=O)O1` (stereo partly shown) [EM-1394], the “Reversibility ((%) of control)” value was 23 % of control. `COCCOc1cc2c(cc1F)C1CCC3(C)C(CCC34CCC(C)(C)C(=O)O4)C1CC2` (stereo not shown) [EM-1393-CS] was tested, and the “Reversibility ((%) of control)” value was 38 % of control. With `CC1(C)CC[C@@]2(CCC3C4CCc5cc(C(=O)O)ccc5C4CC[C@@]32C)OC1=O` (stereo partly drawn) [EM-1401, 3-Carboxy-1,3,5(10)-estratrien-17(R)-spiro-2′-(5′,5′-dimethyl-6′-oxo)tetrahydropyran] the “Reversibility ((%) of control)” value was 31 % of control.
